Test results: US12655142B2 (Merck Patent GmbH, priority 2019, dated 2026)

Experiments:
[1] = biological target: T1, GIST430/654 cell line expressing mutated constitutively active cKIT receptor tyrosine kinase (Δ560-576 deletion and V654A point mutation) (Homo sapiens, UniProt P10721, DEL560-576/V654A); test: Cellular cKIT autophosphorylation (phospho-Y307-cKIT, Luminex bead assay) in GIST430/654 cells; type: cell-based; details: compounds 45 min, read-out: GIST 430/654 IC50
T1 construct: endogenous in cells; host or cells: GIST430/654 cells
How it was run: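 Phospho-Y307 cKIT in lysates was measured on a Luminex bead assay, with total-cKIT capture overnight at 4 °C and phosphospecific plus PE secondary detection. Cells had 45 min exposure to a compound dilution series the day after plating: GIST430 (Δ560-576) or GIST430/654 (Δ560-576/V654A, grown with 100 nM imatinib). IC50 values are relative to 0.3% DMSO-treated cells.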

c-Kit(V654A) = biological target: T2, c-Kit(V654A) (Homo sapiens, UniProt P10721, V654A); test: c-Kit(V654A) assay (33P-ATP filter binding kinase assay); type: biochemical; details: recombinant human c-Kit aa 544-end V654A, ATP 200 μM
T2 construct: recombinant human c-Kit, amino acids 544-end containing the V654A mutation; GST (N)
How it was run: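 Radiometric filter-binding read-out: substrate 33P incorporation counted by scintillation after P30 filtermat washes in 75 mM phosphoric acid and methanol. Enzyme: N-GST recombinant human c-Kit aa 544-end carrying V654A.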

[2] = Determination of Efflux-Ratio (ER) in Caco-2 cells; details: human, Caco-2, pH 7.4
Method: Determination of Efflux-Ratio (ER) in Caco-2 Cells
The efflux ratio of the test compounds was determined in Caco-2 human epithelial colorectal adenocarcinoma cell line (TC7 clone) using calculation of apparent permeability (Papp). Cell monolayers were differentiated in vitro for 14 days before the experiment. Subsequently, the test compound (in HBSS pH 7.4 at 1 μM final concentration) was applied on the donor side while HBSS buffer (pH 7.4) was added to the receiver wells. […] The plate was then incubated in a 5% CO2 incubator (37° C., 100% humidity). At the end of the 2 hours incubation period, 50 μL sample was removed from both donor and receiver wells and diluted 1:1 with equal volumes of acetonitrile for LC-MS/MS analysis. The LC-MS/MS analysis used a one-point calibration method from a 1 μM standard solution diluted 1:1 with equal volume of acetonitrile (consistent to the test samples).
The data was used to calculate the apparent permeabilities of the compounds in both apical to basolateral (Papp,AB) and basolateral to apical (Papp,BA) directions at 1 μM concentration in duplicate. The Papp values were calculated from the concentrations in the donor and receiver compartments using the following formula:
Efflux ratio was calculated according to the following formula:

T1 sequence (P10721 with tags, fused parts or gaps DEL560-576/V654A): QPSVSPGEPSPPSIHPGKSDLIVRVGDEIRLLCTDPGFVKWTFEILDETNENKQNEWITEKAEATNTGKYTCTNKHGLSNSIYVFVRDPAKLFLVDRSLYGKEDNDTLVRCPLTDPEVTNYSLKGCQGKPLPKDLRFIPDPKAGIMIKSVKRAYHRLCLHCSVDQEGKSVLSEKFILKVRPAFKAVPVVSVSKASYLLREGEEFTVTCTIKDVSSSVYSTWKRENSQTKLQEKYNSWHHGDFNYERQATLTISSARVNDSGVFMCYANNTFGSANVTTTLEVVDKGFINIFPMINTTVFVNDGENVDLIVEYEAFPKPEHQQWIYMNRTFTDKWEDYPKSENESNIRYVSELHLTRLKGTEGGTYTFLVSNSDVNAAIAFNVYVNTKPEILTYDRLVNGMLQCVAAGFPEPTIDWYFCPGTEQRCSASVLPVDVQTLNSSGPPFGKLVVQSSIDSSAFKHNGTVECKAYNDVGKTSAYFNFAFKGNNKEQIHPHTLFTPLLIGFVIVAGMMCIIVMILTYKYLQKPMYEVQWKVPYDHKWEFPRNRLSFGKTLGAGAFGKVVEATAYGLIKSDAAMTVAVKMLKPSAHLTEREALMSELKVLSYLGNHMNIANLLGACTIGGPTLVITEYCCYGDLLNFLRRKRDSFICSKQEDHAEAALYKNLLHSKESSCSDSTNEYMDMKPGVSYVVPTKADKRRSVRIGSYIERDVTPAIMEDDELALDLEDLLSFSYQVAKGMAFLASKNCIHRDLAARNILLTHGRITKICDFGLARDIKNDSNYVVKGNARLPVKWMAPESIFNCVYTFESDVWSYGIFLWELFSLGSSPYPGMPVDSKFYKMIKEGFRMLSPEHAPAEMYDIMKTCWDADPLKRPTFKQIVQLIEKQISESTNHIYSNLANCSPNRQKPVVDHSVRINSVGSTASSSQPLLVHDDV
T2 sequence (P10721 544-976 V654A): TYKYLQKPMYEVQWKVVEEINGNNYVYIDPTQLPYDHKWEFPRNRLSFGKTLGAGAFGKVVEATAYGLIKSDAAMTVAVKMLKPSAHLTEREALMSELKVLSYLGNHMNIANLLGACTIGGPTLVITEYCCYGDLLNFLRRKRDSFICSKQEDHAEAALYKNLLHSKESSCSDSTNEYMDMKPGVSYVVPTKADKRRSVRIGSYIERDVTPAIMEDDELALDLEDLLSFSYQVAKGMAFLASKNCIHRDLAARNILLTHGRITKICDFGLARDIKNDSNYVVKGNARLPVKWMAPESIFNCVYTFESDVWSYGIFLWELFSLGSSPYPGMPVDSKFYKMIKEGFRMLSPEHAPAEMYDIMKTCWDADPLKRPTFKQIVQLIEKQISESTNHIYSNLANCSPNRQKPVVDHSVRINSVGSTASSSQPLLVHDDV

| IC50 [1] | IC50 (c-Kit(V654A)) | efflux ratio at 2 h, 1 μM [2] | Structure (SMILES) |
| --- | --- | --- | --- |
| 71 nM | 9.4 nM | < 15 | COCCn1cc(-c2ccc(CNc3cc(-c4cnc5cc(OC)ccn45)ncn3)cc2)cn1 [A19, {4-[1-(2-methoxy-ethyl)-1H-pyrazol-4-yl]-benzyl}-[6-(7-methoxy-imidazo[1,2-a]pyridin-3-yl)-pyrimidin-4-yl]-amine] |
| 58 nM | 4.8 nM | < 15 | COc1ccn2c(-c3cc(NCc4ccc(-c5cnn(CC6CC6)c5)cc4)ncn3)cnc2c1 [A21, [4-(1-cyclopropylmethyl-1H-pyrazol-4-yl)-benzyl]-[6-(7-methoxy-imidazo[1,2-a]pyridin-3-yl)-pyrimidin-4-yl]-amine] |
| 140 nM | 4.2 nM | < 15 | COc1ccn2c(-c3cc(NCc4ccc(-c5cnn(C)c5)s4)ncn3)cnc2c1 [A36, 6-{7-methoxyimidazo[1,2-a]pyridin-3-yl}-N-{[5-(1-methyl-1H-pyrazol-4-yl)thiophen-2-yl]methyl}pyrimidin-4-amine] |
| 34 nM | 6.5 nM | < 15 | CN1CCN(CCOc2ccn3c(-c4cc(NCc5ccc(-c6cnn(C)c6)cc5)ncn4)cnc3c2)CC1 [A61, (6-{7-[2-(4-methyl-piperazin-1-yl)-ethoxy]-imidazo[1,2-a]pyridin-3-yl}-pyrimidin-4-yl)-[4-(1-methyl-1H-pyrazol-4-yl)-benzyl]-amine] |
| 46 nM | 11 nM | < 15 | Cn1cc(-c2ccc(CNc3cc(-c4cnc5cc(OCCN6CCN(C7COC7)CC6)ccn45)ncn3)cc2)cn1 [A65, [4-(1-methyl-1H-pyrazol-4-yl)-benzyl]-(6-{7-[2-(4-oxetan-3-yl-piperazin-1-yl)-ethoxy]-imidazo[1,2-a]pyridin-3-yl}-pyrimidin-4-yl)-amine] |
| 49 nM | 4.8 nM | < 15 | Cn1cc(-c2ccc(CNc3cc(-c4cnc5cc(OCCCN6CCOCC6)ccn45)ncn3)cc2)cn1 [A74, [4-(1-methyl-1H-pyrazol-4-yl)-benzyl]-{6-[7-(3-morpholin-4-yl-propoxy)-imidazo[1,2-a]pyridin-3-yl]-pyrimidin-4-yl}-amine] |
| 40 nM | 14 nM | < 15 | Cn1cc(-c2ccc(CNc3cc(-c4cnc5cc(OCCN6CCC(F)(F)C6)ccn45)ncn3)cc2)cn1 [A77, 6-{7-[2-(3,3-difluoropyrrolidin-1-yl)ethoxy]imidazo[1,2-a]pyridin-3-yl}-N-{[4-(1-methyl-1H-pyrazol-4-yl)phenyl]methyl}pyrimidin-4-amine] |
| 38 nM | 3.4 nM | > 50 | CN1CCC(COc2ccn3c(-c4cc(NCc5ccc(-n6ccnn6)cc5)ncn4)cnc3c2)CC1 [A80, {6-[7-(1-methyl-piperidin-4-ylmethoxy)-imidazo[1,2-a]pyridin-3-yl]-pyrimidin-4-yl}-(4-[1,2,3]triazol-1-yl-benzyl)-amine] |
| 76 nM | 8.6 nM | < 15 | Cn1cc(-c2ccc(CNc3cc(-c4cnc5cc(OCC(C)(C)CN6CCCC6)ccn45)ncn3)cc2)cn1 [A91, {6-[7-(2,2-dimethyl-3-pyrrolidin-1-yl-propoxy)-imidazo[1,2-a]pyridin-3-yl]-pyrimidin-4-yl}-[4-(1-methyl-1H-pyrazol-4-yl)-benzyl]-amine] |

The remaining lines, values behind:

| Structure (SMILES) | IC50 [1] | IC50 (c-Kit(V654A)) | efflux ratio at 2 h, 1 μM [2] |
| --- | --- | --- | --- |
| COCCOc1ccn2c(-c3cc(NCc4ccc(-c5cnn6c5CCC6)cc4)ncn3)cnc2c1 [A17, 6-[7-(2-methoxyethoxy)imidazo[1,2-a]pyridin-3-yl]-N-[(4-{4H,5H,6H-pyrrolo[1,2-b]pyrazol-3-yl}phenyl)methyl]pyrimidin-4-amine] | 110 nM | 9.7 nM | < 15 |
| COc1ccn2c(-c3cc(NCc4ccc(-c5noc(C)n5)cc4)ncn3)cnc2c1 [A26, 6-{7-methoxyimidazo[1,2-a]pyridin-3-yl}-N-{[4-(5-methyl-1,2,4-oxadiazol-3-yl)phenyl]methyl}pyrimidin-4-amine] | 130 nM | 8.6 nM | < 15 |
| COc1ccn2c(-c3cc(NCc4ccc(-c5cnn(C)n5)cc4)ncn3)cnc2c1 [A32, [6-(7-methoxy-imidazo[1,2-a]pyridin-3-yl)-pyrimidin-4-yl]-[4-(2-methyl-2H-[1,2,3]triazol-4-yl)-benzyl]-amine] | 78 nM | 4.4 nM | < 15 |
| COCCn1ncc(-c2ccc(CNc3cc(-c4cnc5cc(OC)ccn45)ncn3)cc2)n1 [A46, N-({4-[2-(2-methoxyethyl)-2H-1,2,3-triazol-4-yl]phenyl}methyl)-6-{7-methoxyimidazo[1,2-a]pyridin-3-yl}pyrimidin-4-amine] | 95 nM | 6.4 nM | < 15 |
| COc1ccn2c(-c3cc(NCc4ccc(-c5cocn5)cc4)ncn3)cnc2c1 [A51, [6-(7-methoxy-imidazo[1,2-a]pyridin-3-yl)-pyrimidin-4-yl]-(4-oxazol-4-yl-benzyl)-amine] | 53 nM | 1.6 nM | < 15 |
| CN1CCC(Oc2ccn3c(-c4cc(NCc5ccc(-c6cnn(C)c6)cc5)ncn4)cnc3c2)CC1 [A63, {6-[7-(1-methyl-piperidin-4-yloxy)-imidazo[1,2-a]pyridin-3-yl]-pyrimidin-4-yl}-[4-(1-methyl-1H-pyrazol-4-yl)-benzyl]-amine] | 84 nM | 12 nM | < 15 |
| Cn1cc(-c2ccc(CNc3cc(-c4cnc5cc(OCC(C)(C)O)ccn45)ncn3)cc2)cn1 [A64, 2-methyl-1-(3-{6-[4-(1-methyl-1H-pyrazol-4-yl)-benzylamino]-pyrimidin-4-yl}-imidazo[1,2-a]pyridin-7-yloxy)-propan-2-ol] | 84 nM | 6.7 nM | < 15 |
| CN1CCN(CCOc2ccn3c(-c4cc(NCc5ccc(-n6ccnn6)cc5)ncn4)cnc3c2)CC1 [A67, (6-{7-[2-(4-methyl-piperazin-1-yl)-ethoxy]-imidazo[1,2-a]pyridin-3-yl}-pyrimidin-4-yl)-(4-[1,2,3]triazol-1-yl-benzyl)-amine] | 65 nM | 4.8 nM | > 50 |
| COCCOc1ccn2c(-c3cc(NCc4ccc(-c5cnn(C)n5)cc4)ncn3)cnc2c1 [A71, {6-[7-(2-methoxy-ethoxy)-imidazo[1,2-a]pyridin-3-yl]-pyrimidin-4-yl}-[4-(2-methyl-2H-[1,2,3]triazol-4-yl)-benzyl]-amine] | 45 nM | 4.6 nM | < 15 |
| Cn1cc(-c2ccc(CNc3cc(-c4cnc5cc(OCCC[N+]6([O-])CCCC6)ccn45)ncn3)cc2)cn1 [A228, 1-[3-({3-[6-({[4-(1-methyl-1H-pyrazol-4-yl)phenyl]methyl}amino)pyrimidin-4-yl]imidazo[1,2-a]pyridin-7-yl}oxy)propyl]pyrrolidin-1-ium-1-olate] | 44 nM | 11 nM |  |
| COc1ccn2c(-c3cc(NCc4ccc(-c5cn(CC(C)(C)O)nc5N)cc4)ncn3)cnc2c1 [A229, 1-[3-amino-4-(4-{[6-(7-methoxy-imidazo[1,2-a]pyridin-3-yl)-pyrimidin-4-ylamino]-methyl}-phenyl)-pyrazol-1-yl]-2-methyl-propan-2-ol] | 660 nM | 87 nM |  |
| Cn1ncc(-c2ccc(CNc3cc(-c4cnc5cc(N6CCCC6)ccn45)ncn3)cc2)n1 [A232, [4-(2-methyl-2H-[1,2,3]triazol-4-yl)-benzyl]-[6-(7-pyrrolidin-1-yl-imidazo[1,2-a]pyridin-3-yl)-pyrimidin-4-yl]-amine] | 170 nM | 23 nM |  |
| CC(COc1ccn2c(-c3cc(NCc4ccc(-c5cnn(C)c5)cc4)ncn3)cnc2c1)CN1CCCC1 (stereo not shown) [A235, [4-(1-methyl-1H-pyrazol-4-yl)-benzyl]-{6-[7-(2-methyl-3-pyrrolidin-1-yl-propoxy)-imidazo[1,2-a]pyridin-3-yl]-pyrimidin-4-yl}-amine] | 87 nM | 4.3 nM |  |
| Cn1cc(-c2ccc(CNc3cc(-c4cnc5cc(OCCCN6CCCCC6)ccn45)ncn3)cc2)cn1 [A237, N-{[4-(1-methyl-1H-pyrazol-4-yl)phenyl]methyl}-6-{7-[3-(piperidin-1-yl)propoxy]imidazo[1,2-a]pyridin-3-yl}pyrimidin-4-amine] | 35 nM | 4.3 nM |  |
| Cn1cc(-c2ccc(CNc3cc(-c4cnc5cc(OCCCN6CC7(COC7)C6)ccn45)ncn3)cc2)cn1 [A238, [4-(1-methyl-1H-pyrazol-4-yl)-benzyl]-(6-{7-[3-(2-oxa-6-aza-spiro[3.3]hept-6-yl)-propoxy]-imidazo[1,2-a]pyridin-3-yl}-pyrimidin-4-yl)-amine] | 62 nM | 6.4 nM |  |
| Cn1ncc(-c2ccc(CNc3cc(-c4cnc5cc(OCCCN6CC7(COC7)C6)ccn45)ncn3)cc2)n1 [A239, [4-(2-methyl-2H-[1,2,3]triazol-4-yl)-benzyl]-(6-{7-[3-(2-oxa-6-aza-spiro[3.3]hept-6-yl)-propoxy]-imidazo[1,2-a]pyridin-3-yl}-pyrimidin-4-yl)-amine] | 94 nM | 3.2 nM |  |
| Cn1cc(-c2ccc(CNc3cc(-c4cnc5cc(F)ccn45)ncn3)cc2)cn1 [H1, 6-{7-fluoroimidazo[1,2-a]pyridin-3-yl}-N-{[4-(1-methyl-1H-pyrazol-4-yl)phenyl]methyl}pyrimidin-4-amine] | 240 nM | 12 nM |  |
